From PubChem BioAssay (NCI) come the findings set out here.

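Values below derive from 48-hour exposures of cells grown in 96-well plates, with endpoints linearly interpolated between the two concentrations bracketing the appropriate inhibition level. GI50 is the concentration that inhibits growth by half. TGI is the concentration that stops growth completely.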

Holding throughout (assay): NCI-60 cell line screen, 48 h
The test system of assay [1] is SF-539 CNS.
For assay [2], the system named is OVCAR-5 ovarian.
For assay [3], the system named is M14 melanoma.
Assay [4] deals with ACHN renal.
For assay [5], the system named is T-47D breast.
Assay [6] concerns HL-60(TB) leukemia.
Assay [7] deals with 786-0 renal.
For assay [8], the system named is OVCAR-3 ovarian.
The subject of assay [9] is NCI-H522 lung.
Assay [10] concerns U251 CNS.

With `Cn1cc(C2=C(c3cccc(Cl)c3)C(=O)NC2=O)c2ccccc21`, the GI50 in assay [1] is more than 25 µM; in assay [2] it was more than 25 µM; in [3], 8.03 µM; in [4] it was more than 25 µM; in [5], 20 µM; in [6], more than 25 µM. Besides, the GI50 in assay [7] was 20.4 µM; in assay [8], more than 25 µM; in [9], more than 25 µM; in [10], 16.5 µM. In addition, the TGI in assay [1] was more than 25 µM; in assay [2] it was more than 25 µM; in assay [3], 23 µM; in [4], more than 25 µM; in assay [5] it was more than 25 µM; in [6], more than 25 µM. In addition, the TGI in assay [7], in assay [8], in assay [9] and in assay [10] was more than 25 µM in each case.

With `O=C(Nc1ccc(I)cc1F)c1cc(F)ccc1O`, the GI50 in assay [1] is 0.444 µM; in assay [2], 4.04 µM; in [3], 0.407 µM; in [4], 0.466 µM; in [5] it was 0.313 µM; in [6] it was 0.382 µM. Moreover, the GI50 is 2.19 µM in assay [7], 0.395 µM in assay [8], 0.304 µM in assay [9] and 0.578 µM in assay [10]. The TGI in assay [1] is 7.07 µM; in assay [2], more than 100 µM; in assay [3], 3.26 µM; in [4] it was more than 100 µM; in assay [5] it was 3 µM; in assay [6] it was 1.93 µM. For the same compound, the TGI is 6.67 µM in [7], more than 56.4 µM in [8] and more than 100 µM in [10].

In the case of `COC(=O)C1=C(C)NC(C)=C(C(=O)OC)C1c1ccccc1[N+](=O)[O-]`, the GI50 in assay [1] was more than 100 µM; in assay [2], more than 100 µM; in [3] it was more than 100 µM; in assay [4], 76.9 µM; in [5], 50.9 µM; in [6], 31.7 µM. Further, the GI50 in assay [7] is more than 100 µM; in assay [8], 93.2 µM; in assay [9], more than 100 µM; in [10] it was more than 100 µM. In addition, the TGI in [1], in [2], in [3], in assay [4], in assay [5] and in assay [6] was more than 100 µM in each case. Further, the TGI in assay [7], in [8], in assay [9] and in assay [10] was more than 100 µM each time.

In the case of `Fc1ccc(-c2ncn(C3CCNCC3)c2-c2ccnc(Oc3ccc(Oc4ccccc4)cc3)n2)cc1`, the GI50 in assay [1] is 4.2 µM; in [2], 4.1 µM; in assay [3], 4.31 µM; in assay [4] it was 3.77 µM; in [5] it was 4.45 µM; in [6] it was 3.93 µM. In addition, the GI50 in [7] was 4.03 µM; in [8], 4.36 µM; in [9], 4.67 µM; in assay [10], 3.56 µM. Also, the TGI in assay [1] amounted to 7.92 µM; in [2] it was 7.67 µM; in [3] it was 7.99 µM; in assay [4], 7.19 µM; in [5], 8.55 µM; in [6] it was 8.33 µM. Moreover, the TGI amounted to 7.75 µM in assay [7], 7.94 µM in assay [8], 8.7 µM in [9] and 7.18 µM in [10].

Take `BrCC[N+]12CCCN1CCC2`: the TGI in [1] was found to be 32.9 µM; in [2], 40 µM; in assay [3], 24.7 µM; in assay [4], 14.3 µM; in [5], 35.2 µM; in assay [6] it was 12.9 µM. The TGI in assay [7] is 22.3 µM; in assay [8], 30.9 µM; in assay [9] it was 1.71 µM; in assay [10], 32.7 µM.

With `CN1CCN(Cc2ccc(NC(=O)c3cncc(C#Cc4cncc5[nH]ncc45)c3)cc2C(F)(F)F)CC1`, the GI50 is 0.411 µM in assay [1]; 0.601 µM in [2]; 0.157 µM in assay [3]; 1.14 µM in assay [4]; 1.8 µM in [5]; 0.249 µM in assay [6]. Further, the GI50 in assay [7] is 1.8 µM; in assay [8], 1.46 µM; in [9], 1.16 µM; in assay [10], 1.53 µM. Also, the TGI came to 1.28 µM in assay [1]; 5.96 µM in [2]; 0.706 µM in assay [3]; 4.71 µM in assay [4]; 9.4 µM in assay [5]; 1.38 µM in assay [6]. Further, the TGI in [7] stood at 6.35 µM; in assay [8] it was 6.39 µM; in [9] it was 8 µM; in [10], 7.76 µM.

`CCc1cc(Nc2nccc(-c3c(-c4ccc(OC)c(C(=O)Nc5c(F)cccc5F)c4)nc4ccccn34)n2)c(OC)cc1N1CCC(N2CCN(S(C)(=O)=O)CC2)CC1`: the GI50 was more than 100 µM in [1]; more than 100 µM in assay [2]; more than 58.1 µM in assay [3]; more than 100 µM in assay [4]; more than 100 µM in assay [5]; more than 100 µM in assay [6]. The GI50 in [7], in assay [8], in [9] and in assay [10] was more than 100 µM throughout. For the same compound, the TGI in assay [1], in assay [2], in assay [3], in [4], in [5] and in assay [6] was more than 100 µM throughout. Besides, the TGI in [7], in assay [8], in [9] and in [10] was more than 100 µM in each case.
